Measured values published in patent US20110313672A1, “CELLULAR ANTIOXIDANT ACTIVITY (CAA) ASSAY” (CORNELL UNIVERSITY, priority 2007, published 2011).

How the values were obtained:
in vitro = details: human
Description: (§1) Briefly, HepG2 cells are seeded at 4×10^4/well on a 96-well plate in 100 μL growth medium and incubated for 24 h at 37° C. The medium is removed and the cells are washed with PBS. Treatments of fruit extracts or antioxidant compounds in 100 μL treatment medium (Williams' Medium E supplemented with 2 mM L-glutamine and 10 mM Hepes) are applied to the cells and the plates are incubated at 37° C. for 24 h. The treatment medium is removed and the cells are washed with PBS. A volume of 50 μL/well methylene blue staining solution (98% HBSS, 0.67% glutaraldehyde, 0.6% methylene blue) is applied to each well and the plate is incubated at 37° C. for 1 h.
(§2) Excess dye is removed by immersing the plate in fresh deionized water until the water appears clear. The excess water should be tapped out of the wells and the plate allowed to air-dry briefly before addition of 100 μL elution solution (49% PBS, 50% ethanol, 1% acetic acid) to each well. The microplate is then placed on a bench-top shaker for 20 minutes to allow uniform elution. The absorbance is read at 570 nm with blank subtraction using, for example a MRX II DYNEX spectrophotometer (DYNEX Inc., Chantilly, Va.). Concentrations of pure compounds or fruit extracts that decrease the absorbance by more than 10% when compared to the control are considered to be cytotoxic.
(§3) Cytotoxicity was measured using the method of Oliver et al. (31) with modifications by our laboratory (32). […] The medium was removed and the cells were washed with PBS. Treatments of fruit extracts or antioxidant compounds in 100 μL treatment medium (Williams' Medium E supplemented with 2 mM L-glutamine and 10 mM Hepes) were applied to the cells and the plates were incubated at 37° C. for 24 h. The treatment medium was removed and the cells were washed with PBS. A volume of 50 μL/well methylene blue staining solution (98% HBSS, 0.67% glutaraldehyde, 0.6% methylene blue) was applied to each well and the plate was incubated at 37° C. for 1 h. The dye was removed and the plate was immersed in fresh deionized water three times, or until the water was clear. The water was tapped out of the wells and the plate was allowed to air-dry briefly before 100 μL elution solution (49% PBS, 50% ethanol, 1% acetic acid) was added to each well. The microplate was placed on a bench-top shaker for 20 minutes to allow uniform elution. The absorbance was read at 570 nm with blank subtraction using the MRX II DYNEX spectrophotometer (DYNEX Inc., Chantilly, Va.). Concentrations of pure compounds or fruit extracts that decreased the absorbance by more than 10% when compared to the control were considered to be cytotoxic.
(§4) The median cytotoxic concentration (CC50) was calculated for each fruit.
(§5) Briefly, HepG2 cells were seeded at 4×10^4/well on a 96-well plate in 100 μL growth medium and incubated for 24 h at 37° C. The medium was removed, and the cells were washed with PBS. Flavonoids in 100 μL growth medium were applied to the cells, and the plates were incubated at 37° C. for 24 h. The medium was removed, and the cells were washed with PBS before a volume of 50 μL/well methylene blue staining solution (98% HBSS, 0.67% glutaraldehyde, 0.6% methylene blue) was applied to each well, and the plate was incubated at 37° C. for 1 h. The dye was removed, and the plate was immersed in fresh deionized water until the water was clear. The water was tapped out of the wells, and the plate was allowed to air-dry briefly before 100 μL of elution solution (49% PBS, 50% ethanol, 1% acetic acid) was added to each well. The microplate was placed on a benchtop shaker for 20 min to allow uniform
(§6) elution. The absorbance was read at 570 nm with blank subtraction using the MRX II Dynex spectrophotometer (Dynex Inc., Chantilly, Va.). The median cytotoxic concentration (CC50) was calculated for each flavonoid.

HepG2 cells = assay: in vitro; details: for CC50: read-out: cytotoxicity CC50, Example 3, median cytotoxic concentration
Description: as §1, §2, §3, §4, §5, §6

[1] = Example 1, dose at which the cell number is reduced by more than 10% after 24 h treatment

Row | Molecule | CC50 at 24 h (in vitro) | Cytotoxicity (cytotoxic concentration) (HepG2 cells; human, 24 h) | CC50 at 24 h (in vitro; HepG2 cells) | other results
1 | O=C(O[C@@H]1Cc2c(O)cc(O)cc2O[C@@H]1c1ccc(O)c(O)c1)c1cc(O)c(O)c(O)c1 [ECG, (−)-epicatechin gallate] | > 200 µM |  |  | 
2 | Oc1cc(O)c2c(c1)O[C@H](c1cc(O)c(O)c(O)c1)[C@H](O)C2 [EGC, (−)-epigallocatechin] | > 200 µM |  |  | 
3 | O=c1c(O)c(-c2ccc(O)cc2)oc2cc(O)cc(O)c12 [Kaempferol, kaempferol] | > 100 µM | 30 µM |  | 
4 | O=c1cc(-c2ccc(O)c(O)c2)oc2cc(O)cc(O)c12 [Luteolin, luteolin] | > 80 µM | 20 µM |  | 
5 | O=c1c(O)c(-c2cc(O)c(O)c(O)c2)oc2cc(O)cc(O)c12 [Myricetin, myricetin] | > 200 µM | 200 µM |  | 
6 | O=c1c(O[C@@H]2O[C@H](CO)[C@@H](O)[C@H](O)[C@H]2O)c(-c2ccc(O)c(O)c2)oc2cc(O)cc(O)c12 [Q-3-G, quercetin-3-β-D-glucoside] |  |  |  | CC50 (HepG2 cells; 24 h): > 200 µM
7 | O=c1c(O)c(-c2ccc(O)c(O)c2)oc2cc(O)cc(O)c12 [Quercetin, quercetin] | > 100 µM | >20 µM |  | 
8 | O=C1c2c(O)cc(O)cc2O[C@H](c2ccc(O)c(O)c2)[C@H]1O [Taxifolin, taxifolin] |  |  | > 200 µM | Cytotoxicity (cytotoxic concentration) (HepG2 cells; [1]): 150 µM
9 | O=c1c(O)c(-c2ccccc2)oc2cc(O)cc(O)c12 [galangin] |  |  | > 80 µM | 
10 | O=c1c(-c2ccc(O)cc2)coc2cc(O)cc(O)c12 [genistein] | > 100 µM |  |  | 
11 | O=c1c(O)c(-c2ccc(O)cc2O)oc2cc(O)cc(O)c12 [morin] |  |  | > 200 µM | 
12 | O=C1C[C@@H](c2ccc(O)cc2)Oc2cc(O)cc(O)c21 [naringenin] |  |  | > 200 µM | 
13 | (−)-epigallocatechin gallate [EGCG] |  |  |  | Cytotoxicity (cytotoxic concentration) (HepG2 cells; [1]): >100 µM; CC50 (HepG2 cells; 24 h): > 100 µM
